Measured values as given in patent US6143910A, “Methods for preparation and use of 1α, 24(S) -dihydroxy vitamin D2” (priority 1998, dated 2000).
Entries after “also recorded” stand apart in the source; their conditions may differ. Read-outs that look alike come from different tables or passages of the source.

Experiments:
Human keratinocytes = experiment: Epidermal cell differentiation and proliferation testing; assay type: cell-based; conditions: 0.05 to 5 μg/ml
Experimental: Human keratinocytes are cultured according to known modifications of the system originally described by Rheinwald and Green (Cell, vol. 6, p. 331 (1975)). The 1α,24(S)-dihydroxy vitamin D2, dissolved in ethanol, is added to cells to yield a variety of concentrations between 0.05 and 5 μg/ml with the ethanol concentration not to exceed 0.5% v/v. Control cultures are supplemented with ethanol at a final concentration of 0.5% v/v.
Differentiation and proliferation of epidermal cells in culture is examined by:
1. quantitation of cornified envelopes;
2. quantitation of cell density of cells attached to disks;
3. monitoring transglutaminase activity; or
4. monitoring DNA synthesis by incorporation of ^3 H-thymidine.

[1] = target: T1, vitamin D serum binding protein (DBP) (Rattus norvegicus, UniProt P04276); experiment: Affinity for vitamin D serum binding protein using vitamin D deficient rat serum
T1 sequence (P04276 17-476): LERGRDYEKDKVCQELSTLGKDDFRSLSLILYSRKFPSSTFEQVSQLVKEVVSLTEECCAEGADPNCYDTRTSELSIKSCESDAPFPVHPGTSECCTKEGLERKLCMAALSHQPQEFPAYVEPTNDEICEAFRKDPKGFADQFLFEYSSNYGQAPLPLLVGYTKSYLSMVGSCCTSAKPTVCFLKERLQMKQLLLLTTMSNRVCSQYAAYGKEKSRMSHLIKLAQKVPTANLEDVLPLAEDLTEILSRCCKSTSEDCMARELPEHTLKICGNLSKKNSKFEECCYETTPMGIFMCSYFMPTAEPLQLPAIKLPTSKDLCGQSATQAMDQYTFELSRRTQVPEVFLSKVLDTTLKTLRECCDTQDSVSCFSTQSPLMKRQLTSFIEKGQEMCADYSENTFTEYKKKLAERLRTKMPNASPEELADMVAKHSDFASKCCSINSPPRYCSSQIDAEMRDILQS
From the text: In addition, the weak binding by the DBP was indicative of more rapid clearance, allowing for low toxicity.

[2] = Preventive treatment of bone mass loss in postmenopausal osteoporotic women; assay type: in vivo, human; conditions: at or above 1.0 μg/day, 24 to 36 months
Experimental: A clinical study is conducted with postmenopausal osteoporotic out-patientshaving ages between 55 and 75 years. The study involves up to 120 patients randomly divided into three treatment groups and continues for 24 to 36 months. Two of the treatment groups receive constant dosages of 1α,24(S)-dihydroxy vitamin D2 (u.i.d.; two different dose levels at or above 1.0 μg/day) and the other group receives a matching placebo. All patients maintain a normal intake of dietary calcium (500 to 800 mg/day) and refrain from using calcium supplements. Efficacy is evaluated by pre- and post-treatment comparisons of the patient groups with regard to (a) total body calcium retention, and (b) radial and spinal bone mineral density as determined by dual-photon absorptiometry (DPA) or dual-energy x-ray absorptiometry (DEXA). Safety is evaluated by comparisons of urinary hydroxyproline excretion, serum and urine calcium levels, creatinine. clearance, blood urea nitrogen, and other routine determinations.

[3] = tested on: BCA-1 or ZR-75-1 (breast) and COL-1 (colon); experiment: Antiproliferative activity in human cancer cell lines, thymidine incorporation; assay type: cell-based; conditions: dose-response studies
Experimental: Dose-response studies are conducted with 1α,24(S)-(OH)2 D2 in a battery of human cancer cell lines. These cell lines include, but are not limited to, the following: BCA-1 or ZR-75-1 (breast) and COL-1 (colon), as described by Shieh, H. L. et al. Chem. Biol. Interact., vol. 81, pp. 35-55 (1982). In this study, appropriate solvents are used as negative controls.

bovine thymus VDR = target: T2, bovine thymus VDR (Bos taurus, UniProt Q28037); experiment: Radioreceptor assay with bovine thymus VDR (Incstar), displacement of 3H-1α,25-(OH)2 D3; assay type: binding
T2 construct: commercially available kit of bovine thymus VDR; purchased Incstar (Stillwater, Minn.); host or cells: bovine thymus
T2 sequence (Q28037 1-426): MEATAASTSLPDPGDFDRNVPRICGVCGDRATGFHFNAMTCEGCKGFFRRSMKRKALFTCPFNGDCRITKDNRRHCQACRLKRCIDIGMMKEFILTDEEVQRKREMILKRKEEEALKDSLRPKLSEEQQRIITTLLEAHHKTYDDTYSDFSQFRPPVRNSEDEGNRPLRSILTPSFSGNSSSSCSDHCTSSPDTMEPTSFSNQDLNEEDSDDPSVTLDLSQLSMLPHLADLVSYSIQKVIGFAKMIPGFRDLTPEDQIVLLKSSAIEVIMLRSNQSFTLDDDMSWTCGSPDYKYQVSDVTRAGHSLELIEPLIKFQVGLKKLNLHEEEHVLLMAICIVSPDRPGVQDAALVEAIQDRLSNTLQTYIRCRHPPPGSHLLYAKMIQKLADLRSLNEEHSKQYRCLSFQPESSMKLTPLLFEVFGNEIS
From the text: Purified 1α,24(S)-(OH)2 D2 was quantitated by photodiode array spectrophotometry and assayed in the radioreceptor assay.
The purified 1α,24(R)-(OH)2 D2 and 1α,24(S)-(OH)2 D2 epimers were quantitated by ultraviolet spectroscopy. The concentration of 1α,24(R)-(OH)2 D2 required to produce the same displacement of ^3 H-1α,25-(OH)2 D3 tracer from the receptor was 20 to 30 times that required for 1α,24(S)-(OH)2 D2, as shown in FIG. 4.

[4] = Hypocalcemia and metabolic bone disease in chronic hemodialysis patients; assay type: in vivo, human; conditions: greater than 3.0 μg/day, twelve months
Experimental: A twelve-month, double-blind, placebo-controlled clinical trial is conducted with thirty men and women with renal disease who are undergoing chronic hemodialysis. […] Efficacy is evaluated by pre- and post-treatment comparisons of the two patient groups with regard to (a) direct measurements of intestinal calcium absorption, (b) total body calcium retention, (c) radial and spinal bone mineral density, or (d) determinations of serum calcium. Safety is evaluated by regular monitoring of serum calcium.

SMILES: C=C1/C(=C\C=C2/CCC[C@]3(C)[C@@H]([C@H](C)/C=C/[C@@](C)(O)C(C)C)CC[C@@H]23)C[C@@H](O)C[C@@H]1O [1α,24(S)-(OH)2 D2, 1α,24(S)-dihydroxy Vitamin D2]
- Cell density of attached cells versus control cultures (Human keratinocytes): fewer attached cells
- Cornified envelopes versus control cultures (Human keratinocytes): more cornified envelopes
- DNA synthesis (3H-thymidine incorporation) versus control cultures (Human keratinocytes): lower DNA synthesis
- Transglutaminase activity versus control cultures (Human keratinocytes): higher transglutaminase activity
- Binding affinity for the vitamin D serum binding protein (in words) [1]: relatively poor binding affinity
- Binding affinity for the vitamin D serum binding protein (in words) ([1]; listed as 1α,24(S)-dihydroxy vitamin D2): more weakly than does 1,25-(OH)2 D3
- Incidence of hypercalcemia or hypercalciuria [2]: insignificant incidence
- Total body calcium, radial and spinal bone densities versus placebo [2]: significantly higher
- Antiproliferative activity, inhibition of thymidine incorporation [3]: potent (and reversible) antiproliferative activity
- Affinity for VDR relative to 1α,25-(OH)2 D3 (bovine thymus VDR): two-fold less competitive; also recorded: two-fold lower affinity
- Incidence of hypercalcemia [4]: insignificant incidence of hypercalcemia
- Radial and spinal bone densities [4]: stable radial and spinal bone densities relative to baseline values
- Serum calcium levels [4]: normalized serum calcium levels
- Total body calcium [4]: stable values for total body calcium
